From patent publication US12258327B2, “5-membered heteroaryl-containing aminopyridine compounds as EGFR inhibitors” (YUHAN CORPORATION, priority 2021, dated 2025)
pIC50: −log10 of the molar value. Where two headings read alike, the source gives them in different places.

Columns and labels:
EGFR del19/T790M/C797S = EGFR del19/T790M/C797S (Homo sapiens, UniProt P00533, C797S/DEL746-750/T790M); assay: Biochemical EGFR kinase assay (Lance Ultra TR-FRET), triple mutant del19/T790M/C797S
Procedure, shortened: (§1)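 In this biochemical assay, phosphorylation after a one-hour room-temperature reaction was detected with europium-labelled anti-phosphopeptide antibody at 2 nM final concentration.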

EGFR L858R/T790M/C797S = EGFR L858R/T790M/C797S (Homo sapiens, UniProt P00533, C797S/L858R/T790M); assay: Biochemical EGFR kinase assay (Lance Ultra TR-FRET), triple mutant L858R/T790M/C797S
Chain of EGFR L858R/T790M/C797S (P00533 25-1210 T790M/C797S/L858R): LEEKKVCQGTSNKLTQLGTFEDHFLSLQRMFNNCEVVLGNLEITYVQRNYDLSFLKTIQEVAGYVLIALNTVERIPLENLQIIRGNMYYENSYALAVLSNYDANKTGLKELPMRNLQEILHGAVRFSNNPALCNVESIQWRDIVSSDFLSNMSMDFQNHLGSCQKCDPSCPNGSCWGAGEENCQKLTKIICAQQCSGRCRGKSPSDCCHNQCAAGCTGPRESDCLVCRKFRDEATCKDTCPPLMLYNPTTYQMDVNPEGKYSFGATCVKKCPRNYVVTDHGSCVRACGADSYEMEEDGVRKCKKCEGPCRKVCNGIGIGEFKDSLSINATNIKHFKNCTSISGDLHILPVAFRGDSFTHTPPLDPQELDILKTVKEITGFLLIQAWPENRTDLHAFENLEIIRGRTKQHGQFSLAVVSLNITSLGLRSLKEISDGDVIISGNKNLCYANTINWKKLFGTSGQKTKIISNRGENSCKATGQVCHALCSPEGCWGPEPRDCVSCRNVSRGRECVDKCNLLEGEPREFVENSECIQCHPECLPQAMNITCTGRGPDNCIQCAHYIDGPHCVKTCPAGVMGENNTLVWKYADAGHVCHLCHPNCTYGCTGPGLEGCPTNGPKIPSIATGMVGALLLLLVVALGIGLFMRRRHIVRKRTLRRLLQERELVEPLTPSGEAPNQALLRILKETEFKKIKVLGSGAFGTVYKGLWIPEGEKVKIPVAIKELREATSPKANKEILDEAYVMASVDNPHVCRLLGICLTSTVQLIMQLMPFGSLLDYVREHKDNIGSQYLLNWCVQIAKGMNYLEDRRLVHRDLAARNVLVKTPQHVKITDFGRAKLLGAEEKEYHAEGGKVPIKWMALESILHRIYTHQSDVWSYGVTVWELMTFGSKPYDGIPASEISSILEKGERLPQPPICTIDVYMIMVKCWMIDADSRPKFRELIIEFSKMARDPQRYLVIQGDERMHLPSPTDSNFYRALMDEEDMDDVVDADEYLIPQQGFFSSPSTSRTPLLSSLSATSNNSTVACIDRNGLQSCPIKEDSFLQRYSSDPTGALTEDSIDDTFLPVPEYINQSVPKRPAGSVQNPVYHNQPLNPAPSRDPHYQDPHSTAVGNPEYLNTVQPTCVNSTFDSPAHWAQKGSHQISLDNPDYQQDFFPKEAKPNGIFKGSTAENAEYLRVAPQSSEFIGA
Procedure, shortened: as §1

EGFR del19/C797S = EGFR del19/C797S (Homo sapiens, UniProt P00533, C797S/DEL746-750); assay: Biochemical EGFR kinase assay (Lance Ultra TR-FRET), double mutant del19/C797S
Chain of EGFR del19/C797S (P00533 with tags, fused parts or gaps DEL746-750/C797S): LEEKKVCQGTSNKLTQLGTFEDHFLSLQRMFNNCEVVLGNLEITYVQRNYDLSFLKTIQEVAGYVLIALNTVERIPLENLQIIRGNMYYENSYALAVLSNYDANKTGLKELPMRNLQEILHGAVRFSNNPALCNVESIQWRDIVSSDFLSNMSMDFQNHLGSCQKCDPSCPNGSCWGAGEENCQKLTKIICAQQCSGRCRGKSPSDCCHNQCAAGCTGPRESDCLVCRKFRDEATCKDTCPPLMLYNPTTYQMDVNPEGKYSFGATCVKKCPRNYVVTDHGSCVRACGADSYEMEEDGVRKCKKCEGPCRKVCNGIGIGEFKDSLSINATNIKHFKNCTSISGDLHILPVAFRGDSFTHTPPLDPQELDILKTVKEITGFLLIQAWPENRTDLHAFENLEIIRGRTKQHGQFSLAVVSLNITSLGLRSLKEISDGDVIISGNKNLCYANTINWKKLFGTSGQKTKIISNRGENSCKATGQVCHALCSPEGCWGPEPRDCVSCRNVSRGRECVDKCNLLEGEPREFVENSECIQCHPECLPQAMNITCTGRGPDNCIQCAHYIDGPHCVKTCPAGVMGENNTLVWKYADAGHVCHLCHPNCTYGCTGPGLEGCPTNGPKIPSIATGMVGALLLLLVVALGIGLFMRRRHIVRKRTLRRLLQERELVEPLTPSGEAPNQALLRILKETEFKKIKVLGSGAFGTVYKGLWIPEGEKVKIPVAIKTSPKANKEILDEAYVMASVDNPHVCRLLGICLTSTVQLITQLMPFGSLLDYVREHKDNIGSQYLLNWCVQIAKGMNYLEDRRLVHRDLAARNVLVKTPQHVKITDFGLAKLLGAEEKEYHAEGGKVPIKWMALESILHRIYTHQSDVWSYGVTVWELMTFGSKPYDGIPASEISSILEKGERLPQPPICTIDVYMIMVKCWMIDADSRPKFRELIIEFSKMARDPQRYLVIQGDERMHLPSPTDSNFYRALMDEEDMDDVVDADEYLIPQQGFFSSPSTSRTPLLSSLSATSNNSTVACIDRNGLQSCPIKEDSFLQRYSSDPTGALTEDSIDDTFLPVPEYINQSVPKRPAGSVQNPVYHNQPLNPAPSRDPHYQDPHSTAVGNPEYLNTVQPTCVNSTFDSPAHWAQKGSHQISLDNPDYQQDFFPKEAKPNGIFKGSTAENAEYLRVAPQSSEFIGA
Procedure, shortened: as §1

EGFR L858R/C797S = EGFR L858R/C797S (Homo sapiens, UniProt P00533, C797S/L858R); assay: Biochemical EGFR kinase assay (Lance Ultra TR-FRET), double mutant L858R/C797S
Procedure, shortened: as §1

EGFR wildtype (WT) = EGFR wildtype (WT) (Homo sapiens, UniProt P00533); assay: Biochemical EGFR kinase assay (Lance Ultra TR-FRET), wildtype
Chain of EGFR wildtype (WT) (P00533 25-1210): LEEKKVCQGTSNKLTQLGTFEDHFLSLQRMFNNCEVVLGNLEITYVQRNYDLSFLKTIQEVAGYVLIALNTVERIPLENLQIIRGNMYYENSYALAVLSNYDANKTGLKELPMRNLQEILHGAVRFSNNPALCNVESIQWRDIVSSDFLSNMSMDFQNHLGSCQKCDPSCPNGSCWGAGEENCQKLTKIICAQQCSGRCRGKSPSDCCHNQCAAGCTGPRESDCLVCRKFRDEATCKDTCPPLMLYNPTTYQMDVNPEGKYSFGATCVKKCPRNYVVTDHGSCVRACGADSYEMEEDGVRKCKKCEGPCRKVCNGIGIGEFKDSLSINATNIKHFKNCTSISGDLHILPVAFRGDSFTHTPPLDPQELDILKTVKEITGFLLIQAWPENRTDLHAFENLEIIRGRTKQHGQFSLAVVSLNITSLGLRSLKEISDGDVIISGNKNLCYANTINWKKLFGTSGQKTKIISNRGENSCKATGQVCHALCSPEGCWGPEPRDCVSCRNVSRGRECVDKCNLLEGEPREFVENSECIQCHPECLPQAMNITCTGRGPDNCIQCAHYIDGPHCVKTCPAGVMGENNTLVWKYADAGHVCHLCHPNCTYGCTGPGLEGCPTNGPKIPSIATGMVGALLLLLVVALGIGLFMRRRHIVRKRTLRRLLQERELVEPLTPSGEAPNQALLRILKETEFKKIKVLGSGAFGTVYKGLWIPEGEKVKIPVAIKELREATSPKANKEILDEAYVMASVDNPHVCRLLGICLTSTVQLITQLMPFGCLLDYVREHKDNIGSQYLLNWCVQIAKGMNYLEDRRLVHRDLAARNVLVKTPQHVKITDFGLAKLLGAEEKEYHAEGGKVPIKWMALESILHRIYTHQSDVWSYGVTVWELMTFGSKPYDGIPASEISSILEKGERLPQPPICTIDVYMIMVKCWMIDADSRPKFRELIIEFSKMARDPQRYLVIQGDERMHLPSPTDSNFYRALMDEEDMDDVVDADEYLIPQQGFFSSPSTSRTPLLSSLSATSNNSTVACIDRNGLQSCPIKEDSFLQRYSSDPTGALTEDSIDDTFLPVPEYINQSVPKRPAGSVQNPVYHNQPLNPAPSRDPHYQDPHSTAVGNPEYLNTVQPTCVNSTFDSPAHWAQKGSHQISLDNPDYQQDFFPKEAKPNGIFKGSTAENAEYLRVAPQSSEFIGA
Procedure, shortened: as §1

[1] = IC50 del19/T790M/C797S (nM) 100 μM ATP, 100 μM ATP
[2] = Km ATP, read-out: IC50 del19/T790M/C797S (nM) Km ATP
[3] = IC50 L858R/T790M/C797S (nM) 100 μM ATP, 100 μM ATP
[4] = Km ATP, read-out: IC50 L858R/T790M/C797S (nM) Km ATP
[5] = IC50 del19/C797S (nM) 100 μM ATP, 100 μM ATP
[6] = Km ATP, read-out: IC50 del19/C797S (nM) Km ATP
[7] = IC50 L858R/C797S (nM) 100 μM ATP, 100 μM ATP
[8] = Km ATP, read-out: IC50 L858R/C797S (nM) Km ATP
[9] = IC50 WT (nM) 100 μM ATP, 100 μM ATP
[10] = Km ATP, read-out: IC50 WT (nM) Km ATP
[11] = Km ATP, read-out: IC50 del19/T790M/C797S, Km ATP
[12] = Km ATP, read-out: IC50 L858R/T790M/C797S, Km ATP
[13] = Km ATP, read-out: IC50 del19/C797S, Km ATP
[14] = Km ATP, read-out: IC50 L858R/C797S, Km ATP
[15] = Km ATP, read-out: IC50 WT, Km ATP

Chain of EGFR del19/T790M/C797S (P00533 with tags, fused parts or gaps DEL746-750/T790M/C797S): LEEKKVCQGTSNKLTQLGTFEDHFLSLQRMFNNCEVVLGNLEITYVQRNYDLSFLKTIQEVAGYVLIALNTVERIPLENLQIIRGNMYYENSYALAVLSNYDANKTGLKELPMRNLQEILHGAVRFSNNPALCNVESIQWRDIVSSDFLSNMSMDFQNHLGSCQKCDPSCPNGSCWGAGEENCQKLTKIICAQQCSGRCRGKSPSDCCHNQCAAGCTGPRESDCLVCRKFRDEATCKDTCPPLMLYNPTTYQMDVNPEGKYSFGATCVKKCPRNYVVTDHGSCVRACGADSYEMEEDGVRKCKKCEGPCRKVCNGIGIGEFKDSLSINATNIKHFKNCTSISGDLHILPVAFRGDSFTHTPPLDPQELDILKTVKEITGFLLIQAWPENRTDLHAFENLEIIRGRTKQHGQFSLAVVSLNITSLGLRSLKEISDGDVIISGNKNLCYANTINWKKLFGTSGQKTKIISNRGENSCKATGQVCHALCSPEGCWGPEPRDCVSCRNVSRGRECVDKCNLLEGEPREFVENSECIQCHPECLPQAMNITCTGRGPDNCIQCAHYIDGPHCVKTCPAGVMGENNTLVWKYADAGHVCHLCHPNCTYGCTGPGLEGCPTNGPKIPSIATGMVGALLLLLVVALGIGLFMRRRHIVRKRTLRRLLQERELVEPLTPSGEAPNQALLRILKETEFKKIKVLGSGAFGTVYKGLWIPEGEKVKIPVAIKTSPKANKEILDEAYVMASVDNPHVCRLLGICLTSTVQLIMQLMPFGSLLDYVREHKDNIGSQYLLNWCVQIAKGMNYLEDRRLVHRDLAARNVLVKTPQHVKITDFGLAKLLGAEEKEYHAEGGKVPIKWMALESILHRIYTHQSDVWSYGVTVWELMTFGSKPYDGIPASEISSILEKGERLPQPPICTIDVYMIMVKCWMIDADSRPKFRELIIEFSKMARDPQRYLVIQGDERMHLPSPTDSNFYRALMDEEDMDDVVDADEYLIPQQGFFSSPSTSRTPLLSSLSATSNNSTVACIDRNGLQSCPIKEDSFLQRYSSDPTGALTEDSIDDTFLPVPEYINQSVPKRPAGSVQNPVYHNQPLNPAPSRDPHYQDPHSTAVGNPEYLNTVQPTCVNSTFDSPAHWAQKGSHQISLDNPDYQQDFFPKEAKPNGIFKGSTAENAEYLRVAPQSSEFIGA

| Structure (SMILES) | IC50 (EGFR del19/T790M/C797S; [1]) | IC50 (EGFR del19/T790M/C797S; [2]) | IC50 (EGFR L858R/T790M/C797S; [3]) | IC50 (EGFR L858R/T790M/C797S; [4]) | IC50 (EGFR del19/C797S; [5]) | IC50 (EGFR del19/C797S; [6]) | IC50 (EGFR L858R/C797S; [7]) | IC50 (EGFR L858R/C797S; [8]) | IC50 (EGFR wildtype (WT); [9]) | IC50 (EGFR wildtype (WT); [10]) | further results |
| --- | --- | --- | --- | --- | --- | --- | --- | --- | --- | --- | --- |
| CN(C)C(=O)[C@H]1CC[C@@H](Nc2cc(Nc3ccnc(-c4cnn(S(=O)(=O)C5CC5)c4)n3)ncc2-c2ccn(C)n2)CC1 [Example 232, (1s,4s)-4-((2-((2-(1-(Cyclopropylsulfonyl)-1H-pyrazol-4-yl)pyrimidin-4-yl)amino)-5-(1-methyl-1H-pyrazol-3-yl)pyridin-4-yl)amino)-N,N-dimethylcyclohexane-1-carboxamide] | 0.4 nM | 0.6 nM | 0.4 nM | 0.3 nM | 1.1 nM | 0.5 nM | 1.6 nM | 0.4 nM | 247 nM |  |  |
| C[C@]1(O)CC[C@@H](Nc2cc(Nc3ccnc(-c4cnn(CC(F)F)c4)n3)ncc2-c2ccn(CC(F)F)n2)CC1 [Example 343, (1s,4s)-4-((5-(1-(2,2-Difluoroethyl)-1H-pyrazol-3-yl)-2-((2-(1-(2,2-difluoroethyl)-1H-pyrazol-4-yl)pyrimidin-4-yl)amino)pyridin-4-yl)amino)-1-methylcyclohexan-1-ol] |  |  |  |  |  |  |  |  |  |  | pIC50 (EGFR del19/T790M/C797S; [11]): 10.00; pIC50 (EGFR L858R/T790M/C797S; [12]): 9.70; pIC50 (EGFR del19/C797S; [13]): 8.33; pIC50 (EGFR L858R/C797S; [14]): 9.52; pIC50 (EGFR wildtype (WT); [15]): 7.45 |
| CC(C)n1ccc(-c2cnc(Nc3ccnc(-c4cnn(S(=O)(=O)C5CC5)c4)n3)cc2N[C@H]2CC[C@@H](O)CC2)n1 [Example 82, (1s,4s)-4-((2-((2-(1-(Cyclopropylsulfonyl)-1H-pyrazol-4-yl)pyrimidin-4-yl)amino)-5-(1-isopropyl-1H-pyrazol-3-yl)pyridin-4-yl)amino)cyclohexan-1-ol] |  |  |  |  |  |  |  |  |  |  | IC50 (EGFR del19/T790M/C797S; read-out: IC50 del19/T790M/C797S (nM) 100 μM ATP, 100 μM ATP): 1.7 nM; IC50 (EGFR L858R/T790M/C797S; read-out: IC50 L858R/T790M/C797S (nM) 100 μM ATP, 100 μM ATP): 1.8 nM; IC50 (EGFR del19/C797S; read-out: IC50 del19/C797S (nM) 100 μM ATP, 100 μM ATP): 2.1 nM; IC50 (EGFR L858R/C797S; read-out: IC50 L858R/C797S (nM) 100 μM ATP, 100 μM ATP): 3.9 nM; IC50 (EGFR wildtype (WT); read-out: IC50 WT (nM) 100 μM ATP, 100 μM ATP): 2410 nM |
| CC1(N)CCC(Oc2cc(Nc3ccnc(-c4cnn(S(=O)(=O)C5CC5)c4)n3)ncc2-c2cnn(C(F)F)c2)CC1 (centres unmarked) [Example 74, N-(4-((4-Amino-4-methylcyclohexyl)oxy)-5-(1-(difluoromethyl)-1H-pyrazol-4-yl)pyridin-2-yl)-2-(1-(cyclopropylsulfonyl)-1H-pyrazol-4-yl)pyrimidin-4-amine] | 8.3 nM |  | 25.2 nM |  | 103 nM |  | 1380 nM |  | > 10000 nM |  |  |
| O=S(=O)(C1CC1)n1cc(-c2nccc(Nc3cc(N[C@H]4CCCNCC4)c(-c4ccn(C(F)F)n4)cn3)n2)cn1 [Example 17, (S)-N^4-(Azepan-4-yl)-N^2-(2-(1-(cyclopropylsulfonyl)-1H-pyrazol-4-yl)pyrimidin-4-yl)-5-(1-(difluoromethyl)-1H-pyrazol-3-yl)pyridine-2,4-diamine] | 1 nM |  | 2.6 nM |  | 19.1 nM |  | 691 nM |  | > 10000 nM |  |  |
| C[C@]1(O)CC[C@@H](Nc2nc(Nc3ccnc(-c4cnn(CC(F)F)c4)c3)ncc2-c2ccn(C(F)F)n2)CC1 [Example 362, (1s,4s)-4-((2-((2-(1-(2,2-Difluoroethyl)-1H-pyrazol-4-yl)pyridin-4-yl)amino)-5-(1-(difluoromethyl)-1H-pyrazol-3-yl)pyrimidin-4-yl)amino)-1-methylcyclohexan-1-ol] |  |  |  |  |  |  |  |  |  |  | pIC50 (EGFR del19/T790M/C797S; [11]): 9.70; pIC50 (EGFR L858R/T790M/C797S; [12]): 10.00; pIC50 (EGFR del19/C797S; [13]): 7.89; pIC50 (EGFR L858R/C797S; [14]): 8.30; pIC50 (EGFR wildtype (WT); [15]): 6.80 |
| CN[C@H]1CC[C@H](CNc2cc(Nc3ccnc(-c4cnn(S(=O)(=O)C5CC5)c4)n3)ncc2-c2ccn(C(F)F)n2)CC1 [Example 193, N^2-(2-(1-(Cyclopropylsulfonyl)-1H-pyrazol-4-yl)pyrimidin-4-yl)-5-(1-(difluoromethyl)-1H-pyrazol-3-yl)-N^4-(((1r,4r)-4-(methylamino)cyclohexyl)methyl)pyridine-2,4-diamine] | 0.2 nM | 0.2 nM | 0.1 nM | 0.1 nM | 0.7 nM | 0.3 nM | 7.2 nM | 1 nM | 2050 nM | 4 nM |  |
| O=S(=O)(C1CC1)n1cc(-c2nccc(Nc3cc(N[C@@H]4CCC[C@H](O)C4)c(-c4csc(C(F)(F)F)n4)cn3)n2)cn1 [Example 96, (1S,3R)-3-((2-((2-(1-(Cyclopropylsulfonyl)-1H-pyrazol-4-yl)pyrimidin-4-yl)amino)-5-(2-(trifluoromethyl)thiazol-4-yl)pyridin-4-yl)amino)cyclohexan-1-ol] | 3.5 nM | 2.7 nM | 6.2 nM | 2 nM | 159 nM | 89.1 nM | 690 nM | 22.7 nM | > 10000 nM | 418 nM |  |
| CC1(O)CCC(Nc2cc(Nc3ccnc(N4CC(O)C(F)(F)C4)n3)ncc2-c2ccn(C(F)F)n2)CC1 (centres unmarked) [Example 349, 1-(4-((5-(1-(Difluoromethyl)-1H-pyrazol-3-yl)-4-(((1s,4s)-4-hydroxy-4-methylcyclohexyl)amino)pyridin-2-yl)amino)pyrimidin-2-yl)-4,4-difluoropyrrolidin-3-ol] |  |  |  |  |  |  |  |  |  |  | pIC50 (EGFR del19/T790M/C797S; IC50 del19/T790M/C797S, 100 μM ATP): 9.00; pIC50 (EGFR del19/T790M/C797S; [11]): 8.62; pIC50 (EGFR L858R/T790M/C797S; IC50 L858R/T790M/C797S, 100 μM ATP): 8.55; pIC50 (EGFR L858R/T790M/C797S; [12]): 9.52; pIC50 (EGFR del19/C797S; IC50 del19/C797S, 100 μM ATP): 6.56; pIC50 (EGFR del19/C797S; [13]): 7.27; pIC50 (EGFR L858R/C797S; IC50 L858R/C797S, 100 μM ATP): 6.52; pIC50 (EGFR L858R/C797S; [14]): 7.11; pIC50 (EGFR wildtype (WT); IC50 WT, 100 μM ATP): < 5.00; pIC50 (EGFR wildtype (WT); [15]): 6.72 |
| O=S(=O)(C1CC1)n1cc(-c2nccc(Nc3cc(N[C@H]4CCC[C@H](O)C4)c(-c4ccn(C(F)F)n4)cn3)n2)cn1 [Example 21, (1S,3S)-3-((2-((2-(1-(Cyclopropylsulfonyl)-1H-pyrazol-4-yl)pyrimidin-4-yl)amino)-5-(1-(difluoromethyl)-1H-pyrazol-3-yl)pyridin-4-yl)amino)cyclohexan-1-ol] | 1.3 nM | 0.3 nM | 0.9 nM | 0.2 nM | 0.7 nM | 0.3 nM | 8.9 nM | 0.9 nM | 5010 nM | 5.4 nM |  |

Second part, led by results:

| IC50 (EGFR del19/T790M/C797S; [1]) | IC50 (EGFR del19/T790M/C797S; [2]) | IC50 (EGFR L858R/T790M/C797S; [3]) | IC50 (EGFR L858R/T790M/C797S; [4]) | IC50 (EGFR del19/C797S; [5]) | IC50 (EGFR del19/C797S; [6]) | IC50 (EGFR L858R/C797S; [7]) | IC50 (EGFR L858R/C797S; [8]) | IC50 (EGFR wildtype (WT); [9]) | IC50 (EGFR wildtype (WT); [10]) | Structure (SMILES) | further results |
| --- | --- | --- | --- | --- | --- | --- | --- | --- | --- | --- | --- |
|  | 1.2 nM |  | 0.5 nM |  | 23.7 nM |  | 2 nM |  | 57.2 nM | CS(=O)(=O)n1ccc(-c2nccc(Nc3cc(N[C@H]4CC[C@@](C)(O)CC4)c(-c4ccn(C(F)F)n4)cn3)n2)c1 [Example 108, (1s,4s)-4-((5-(1-(Difluoromethyl)-1H-pyrazol-3-yl)-2-((2-(1-(methylsulfonyl)-1H-pyrrol-3-yl)pyrimidin-4-yl)amino)pyridin-4-yl)amino)-1-methylcyclohexan-1-ol] |  |
| 2.7 nM |  | 1 nM | 0.2 nM | 2 nM | 1.7 nM | 10 nM | 4.5 nM | 4010 nM | 8.4 nM | CC(C)(O)[C@H]1CC[C@@H](Nc2cc(Nc3ccnc(-c4cnn(S(=O)(=O)C5CC5)c4)n3)ncc2-c2ccn(CC(F)F)n2)CC1 [Example 243, 2-((1s,4s)-4-((2-((2-(1-(Cyclopropylsulfonyl)-1H-pyrazol-4-yl)pyrimidin-4-yl)amino)-5-(1-(2,2-difluoroethyl)-1H-pyrazol-3-yl)pyridin-4-yl)amino)cyclohexyl)propan-2-ol] |  |
| 0.4 nM | 0.2 nM | 0.2 nM | 0.1 nM | 0.7 nM | 0.3 nM | 3.7 nM | 0.4 nM | 384 nM | 1.1 nM | CNC[C@H]1CC[C@H](CNc2cc(Nc3ccnc(-c4cnn(S(=O)(=O)C5CC5)c4)n3)ncc2-c2ccn(C(F)F)n2)CC1 [Example 192, N^2-(2-(1-(Cyclopropylsulfonyl)-1H-pyrazol-4-yl)pyrimidin-4-yl)-5-(1-(difluoromethyl)-1H-pyrazol-3-yl)-N^4-(((1r,4r)-4-((methylamino)methyl)cyclohexyl)methyl)pyridine-2,4-diamine] |  |
